Data taken from patent publication US4537777A, “A52688 Antibiotics and process for their production” (priority 1983, dated 1985).
Where two headings read alike, the source gives them in different places.

Experiments:
Staphylococcus aureus = test: standard disc-plate assay; format: cell-based; conditions: read-out: Zone Diameters
Bacillus subtilis = test: standard disc-plate assay; format: cell-based; conditions: read-out: Zone Diameters
Micrococcus luteus = test: standard disc-plate assay; format: cell-based; conditions: read-out: Zone Diameters
Mycobacterium avium = test: standard disc-plate assay; format: cell-based; conditions: read-out: Zone Diameters
[1] = test system: Saccharomyces pastorianus; test: standard disc-plate assay; format: cell-based; conditions: read-out: Zone Diameters
Neurospora crassa = test: standard disc-plate assay; format: cell-based; conditions: read-out: Zone Diameters
Candida albicans = test: standard disc-plate assay; format: cell-based; conditions: read-out: Zone Diameters
[2] = test system: Trichophyton mentagroprophytes; test: standard disc-plate assay; format: cell-based; conditions: read-out: Zone Diameters
Proteus vulgaris = test: standard disc-plate assay; format: cell-based; conditions: read-out: Zone Diameters
Salmonella gallinarium = test: standard disc-plate assay; format: cell-based; conditions: read-out: Zone Diameters
Escherichia coli = test: standard disc-plate assay; format: cell-based
Procedure: In Table IX the standard discplate-assay activity of the A52688 factors is summarized. Activity is measured as the diameter (in mm) of the observed zone of inhibition; the diameter of the disc used in each case was 6.35 mm.

Pseudomonas aeruginosa = test: standard disc-plate assay; format: cell-based; conditions: read-out: Zone Diameters
Serratia marcescens = test: standard disc-plate assay; format: cell-based; conditions: read-out: Zone Diameters
Pseudomonas solanacearum = test: microbe, parasite or virus in culture; format: cell-based; conditions: Ralstonia solanacearum; conc 0.1 mg/ml; read-out: Zone Diameters
[3] = test system: Bacillus stereothermophilus; test: standard disc-plate assay; format: cell-based; conditions: read-out: Zone Diameters
moisture absorption = format: physicochemical
Adenocarcinoma 755 = test: murine-transplanted tumor adenocarcinoma 755 in mice; format: in vivo; conditions: for Percent Tumor Inhibition / Toxic Deaths: daily for 10 days
Procedure: (§1) A52688 factors A, C, D, E, F, G, H, J and K and the specified acyl esters of factors A, C, D, E, G, H, J and K are especially useful as oncolytic agents.
Table X summarizes the results of experiments in which mice bearing the murine-transplanted tumor adenocarcinoma 755 were treated with compounds of this invention. In each test the compound was administered by the intraperitoneal route at specified dose levels. The compound was administered over a ten-day period, either on a daily basis or on days one, five and nine, as indicated.

acute toxicity in mice = conditions: mouse, in vivo, formulated in aqueous PVP
From the text: ^a Compounds formulated in aqueous PVP
^b Route test compound administered

Lewis lung tumor = test: tumor growth test in mice; format: in vivo; conditions: tests in mice
From the text: as §1

lymphosarcoma 6L3 HED = test: tumor growth test in mice; format: in vivo; conditions: tests in mice
From the text: as §1

ovarian M-5 tumor = test: tumor growth test in mice; format: in vivo; conditions: tests in mice
From the text: as §1

[4] = test system: plasma cell myeloma X-5563; test: tumor growth test in mice; format: in vivo; conditions: tests in mice
From the text: as §1

solid leukemia P1534J = test: tumor growth test in mice; format: in vivo; conditions: tests in mice
From the text: as §1

[5] = read-out: Zone Diameters, in minimal medium, conc 0.1 mg/ml, disc 6.35 mm

Work on `[C-]#[N+]C(=CC1CCC(OC(=O)CC(C)C)CC1)C(=CC1(OC(C)=O)C=CC(O)CC1)[N+]#[C-]` (stereo not drawn) [Factor K] yielded a zone of inhibition at 100 µg/mL (Staphylococcus aureus) of 25 mm, a zone of inhibition at 100 µg/mL (Bacillus subtilis) of 18 mm and a zone of inhibition at 100 µg/mL (Micrococcus luteus) of 29 mm. It also gave a zone of inhibition at 100 µg/mL (Mycobacterium avium) of 11 mm, a zone of inhibition at 100 µg/mL [1] of 20 mm and a zone of inhibition at 100 µg/mL (Neurospora crassa) of 37 mm. It also gave a zone of inhibition at 100 µg/mL (Candida albicans) of 20 mm, a zone of inhibition at 100 µg/mL [2] of 32 mm and a zone of inhibition at 100 µg/mL (Proteus vulgaris) of 19 mm. For the same compound, the zone of inhibition at 100 µg/mL (Salmonella gallinarium) was 17 mm, the zone of inhibition at 100 µg/mL (Escherichia coli; [5]) was 11 mm and the zone of inhibition at 100 µg/mL (Pseudomonas aeruginosa) was 11 mm. For the same compound, the zone of inhibition at 100 µg/mL (Serratia marcescens) was 11 mm, the zone of inhibition at 100 µg/mL (Pseudomonas solanacearum) was 19 mm and the zone of inhibition at 100 µg/mL [3] was 25 mm. For the same compound, the moisture absorption (moisture absorption) was “absorbs moisture readily”.
Compound `[C-]#[N+]C(=CC1=C[C@@H](O)[C@H](O)CC1)C(=CC1CCC(OC(=O)C=C(C)C)CC1)[N+]#[C-]` (relative stereo) [Factor A] has a zone of inhibition at 100 µg/mL (Staphylococcus aureus) of 26 mm, a zone of inhibition at 100 µg/mL (Bacillus subtilis) of 30 mm and a zone of inhibition at 100 µg/mL (Micrococcus luteus) of 36 mm. The zone of inhibition at 100 µg/mL (Mycobacterium avium) was 14 mm, the zone of inhibition at 100 µg/mL [1] was 20 mm and the zone of inhibition at 100 µg/mL (Neurospora crassa) was 39 mm. The zone of inhibition at 100 µg/mL (Candida albicans) was 33 mm, the zone of inhibition at 100 µg/mL [2] was 45 mm and the zone of inhibition at 100 µg/mL (Proteus vulgaris) was 24 mm. The zone of inhibition at 100 µg/mL (Salmonella gallinarium) was 21 mm, the zone of inhibition at 100 µg/mL (Escherichia coli; read-out: Zone Diameters, conc 0.1 mg/ml, disc 6.35 mm) was 24 mm and the zone of inhibition at 100 µg/mL (Escherichia coli; [5]) was 20 mm. The zone of inhibition at 100 µg/mL (Pseudomonas aeruginosa) was 23 mm, the zone of inhibition at 100 µg/mL (Serratia marcescens) was 20 mm and the zone of inhibition at 100 µg/mL (Pseudomonas solanacearum) was 26 mm. For the same compound, the zone of inhibition at 100 µg/mL [3] was 35 mm, the “Percent Tumor Inhibition” value (Adenocarcinoma 755; 0.25 mg/kg i.p.) was 3% and the “Toxic Deaths” value (Adenocarcinoma 755; 0.25 mg/kg i.p., of 10 mice tested (9 for factor E)) was 0. The “Percent Tumor Inhibition” value (Adenocarcinoma 755; 0.30 mg/kg i.p.) was 55%, the “Toxic Deaths” value (Adenocarcinoma 755; 0.30 mg/kg i.p., of 10 mice tested) was 1 and the “Percent Tumor Inhibition” value (Adenocarcinoma 755; 0.35 mg/kg i.p.) was 69%. For the same compound, the “Toxic Deaths” value (Adenocarcinoma 755; 0.35 mg/kg i.p., of 10 mice tested) was 1, the “Percent Tumor Inhibition” value (Adenocarcinoma 755; 0.40 mg/kg i.p.) was 91% and the “Toxic Deaths” value (Adenocarcinoma 755; 0.40 mg/kg i.p., of 9 mice tested) was 6. The growth of tumor (Adenocarcinoma 755; tests in mice) was “inhibited the growth”, the LD50 (acute toxicity in mice; ip, intraperitoneal, read-out: Intraperitoneal LD50) was 3.12 mg/kg and the LD50 (acute toxicity in mice; oral, read-out: Oral LD50) was 8.84 mg/kg. For the same compound, the growth of tumor (Lewis lung tumor) was “inhibited the growth”, the growth of tumor (lymphosarcoma 6L3 HED) was “inhibited the growth” and the growth of tumor (ovarian M-5 tumor) was “inhibited the growth”. For the same compound, the growth of tumor [4] was “inhibited the growth” and the growth of tumor (solid leukemia P1534J) was “inhibited the growth”.
